Among the data in US3957987A, “Compositions containing a carbonamidoquinoxaline-di-N-oxide and method of using same” (Bayer Aktiengesellschaft, priority 1971, dated 1976) are MIC values, retold here.

Common to all, as to assay type: cell-based
One test deals with Klebsiella 63. Description: Minimum inhibitory concentration in vitro, Klebsiella 63. From the text:
(§1) As representative of the spectrum of antimicrobial activity for these compounds, the following representative minimum inhibitory concentrations shown on Tables A, B and C can be noted:
(§2) Minimum Inhibitory Concentrations In Vitro, in μg/ml of Medium

The test system of the next test is Klebsiella 8085. Description: Minimum inhibitory concentration in vitro, Klebsiella 8085.
From the text: as §1, §2

For test [1], the system named is Staphylococcus aureus 133. Briefly: Minimum inhibitory concentration in vitro, Staphylococcus aureus 133.
From the text: as §1, §2

The next test deals with Streptococcus pyogenes. Briefly: Minimum inhibitory concentration in vitro, Streptococcus pyogenes.
From the text: as §1, §2

The next test relates to Escherichia coli C 165. Description: Minimum inhibitory concentration in vitro, Escherichia coli C 165. As to conditions: C165.
From the text: as §1, §2

The test system of a further test is Escherichia coli A 261. Description: Minimum inhibitory concentration in vitro, Escherichia coli A 261. Conditions: A261.
From the text: as §1, §2

The test system of another test is Proteus vulgaris. Description: Minimum inhibitory concentration in vitro, Proteus vulgaris specieis.
From the text: as §1, §2

The subject of another test is Clostridium tetani. Briefly: microbe, parasite or virus in culture. Conditions: read-out: minimum inhibitory concentration.
Another test deals with Clostridium botulinum. Description: microbe, parasite or virus in culture. Conditions: read-out: minimum inhibitory concentration.
For another test, the system named is Mycoplasma S6. Briefly: Minimum inhibitory concentration, Mycoplasma S6.
A further test deals with Mycoplasma gran. Description: Minimum inhibitory concentration, Mycoplasma gran.
The test system of test [2] is Pasteurella multocida ATCC. Description: Minimum inhibitory concentration, Pasteurella multocida ATCC.
In test [3] the test system is Alcaligenes faecalis ATCC. Description: Minimum inhibitory concentration, Alcaligenes faecalis ATCC.
The test system of test [4] is Bordetella bronchiseptica. Description: Minimum inhibitory concentration, Bordetella bronchiseptica.
The next test concerns Aeromonas liquefaciens. Briefly: Minimum inhibitory concentration, Aeromonas liquefaciens. As to conditions: Aeromonas hydrophila.
Another test concerns Mycobacterium species. Briefly: Minimum inhibitory concentration, Mycobacterium species. An excerpt:
As representative of the spectrum of antimicrobial activity for these compounds, the following representative minimum inhibitory concentrations shown on Tables A, B and C can be noted: […]

Converted amounts (≈) assume the structure as drawn.

For the compound `CCNC(=O)c1c(C=NNC(=O)OC)[n+]([O-])c2ccccc2[n+]1[O-]` [Example 18], the MIC against Klebsiella 63 came to 100 µg/mL (≈ 300 µM); in the test on Klebsiella 8085 it was 10 µg/mL (≈ 30 µM); in test [1] it was 100 µg/mL (≈ 300 µM); with Streptococcus pyogenes, 100 µg/mL (≈ 300 µM); in the test with Escherichia coli C 165, 100 µg/mL (≈ 300 µM); in the test with Escherichia coli A 261 it was 100 µg/mL (≈ 300 µM). In addition, the MIC (in the test on Proteus vulgaris; in the test with Clostridium tetani; with Clostridium botulinum; against Mycoplasma S6; in the test with Mycoplasma gran; in [2]) was 100 µg/mL (≈ 300 µM) in each case. The MIC (in test [3]; in test [4]; in the test on Aeromonas liquefaciens; against Mycobacterium species) was 100 µg/mL (≈ 300 µM) each time.
Turning to `CNC(=O)c1c(C=NO)[n+]([O-])c2ccccc2[n+]1[O-]` [Example 19], the MIC (against Klebsiella 63; in the test with Klebsiella 8085; in test [1]; in the test on Streptococcus pyogenes; against Escherichia coli C 165; against Escherichia coli A 261) was 100 µg/mL (≈ 381 µM) throughout. The MIC (against Proteus vulgaris; in the test on Clostridium tetani; with Clostridium botulinum; in the test on Mycoplasma S6; in the test with Mycoplasma gran; in test [2]) was 100 µg/mL (≈ 381 µM) each time. Besides, the MIC in [3] is 100 µg/mL (≈ 381 µM); in test [4], 100 µg/mL (≈ 381 µM); with Aeromonas liquefaciens, 100 µg/mL (≈ 381 µM); with Mycobacterium species, 40 to 100 µg/mL (≈ 153 to 381 µM).
